The results in this text go back to patent publication US6710044B2, “Technical field” (NeuroSearch A/S, priority 1996, dated 2004).

What is called IC50 is the concentration at which inhibition is half-maximal. Higher therefore signals a need for much substance. One may read the melting point as the temperature, or range, at which the solid turns liquid.

“And” between values parts separate entries of the source, which are not always exact repeats. Equal values may be shown once.

For one data set, the target named is benzodiazepine receptor sites (GABAA receptor complex). Put plainly: In vitro inhibition of 3H-flunitrazepam (3H-FNM) binding, cerebral cortex membranes. To be noted: inhibition of specific binding of 3H-FNM (1 nM), rat cerebral cortex membranes, 40 min at 2° C. The procedure: The affinity of various potential ligands for the benzodiazepine receptor sites can thus be evaluated by estimating the ability of test compounds to displace ^3H-flunitrazepam.
Tissue Preparation: Preparations are performed at 0-4° C. unless otherwise indicated.
Cerebral cortex from male Wistar rats (150-200 g) is homogenized for 5-10 sec in 20 ml Tris-HCl (30 mM, pH 7.4) using an Ultra-Turrax homogenizer. The suspension is centrifuged at 27,000×g for 15 min, and the pellet is washed three times with buffer (centrifuged at 27,000×g for 10 min). The washed pellet is homogenized in 20 ml of buffer and incubated on a water bath (37° C.) for 30 min to remove endogenous GABA and then centrifuged for 10 min at 27,000×g. The pellet is then homogenized in buffer and centrifuged for 10 min at 27,000×g. The final pellet is resuspended in 30 ml buffer and the preparation is frozen and stored at −20° C.
Assay: The membrane preparation is thawed and centrifuged at 2° C. for 10 min at 27,000×g. The pellet is washed twice with 20 ml 50 mM Tris-citrate, pH 7.1 using an Ultra-Turrax homogenizer and centrifuged for 10 min at 27,000×g. The final pellet is resuspended in 50 mM Tris-citrate, pH 7.1 (500 ml buffer per g of original tissue), and then used for binding assays. Aliquots of 0.5 ml tissue are added to 25 μl of test solution and 25 μl of ^3H-FNM (1 nM, final concentration), mixed and incubated for 40 min at 2° C. Non-specific binding is determined using clonazepam (1 μM, final concentration). After incubation the samples are added 5 ml of ice-cold buffer and poured directly onto Whatman GF/C glass fibre filters under suction and immediately washed with 5 ml ice-cold buffer. The amount of radioactivity on the filters is determined by conventional liquid scintillation counting. Specific binding is total binding minus non-specific binding.
The test value is calculated as the IC50 (the concentration (nM) of the test substance which inhibits the specific binding of ^3H—FNM by 50%).
Turning to `N#Cc1ccc2c(c1)ncn2-c1cccc(N2CCCC2)c1` [compound 3a2, 5-Cyano-1-(3-(1-pyrrolidinyl)phenyl)benzimidazole], the IC50 was determined as 41 nM.
`CN1CCCC(c2cccc(-n3cnc4cc(C=NO)ccc43)c2)C1` (stereo not drawn) [compound 3b4, 5-Formyl-1-(3-(1-methyl-3-piperidinyl)phenyl)benzimidazole oxime]: the IC50 amounted to 4 nM.
Still for that read-out and setting: the figure for `CCON=C(C)c1ccc2c(c1)ncn2-c1cccc(C2CCCN(C)C2)c1.Cl` (stereo not drawn) [compound 3f7, 5-acetyl-1-(3-(1-methylpiperidin-3-yl)phenyl)benzimidazole O-ethyl oxime hydrochloride] is 18 nM; for `CN1CCCC(c2cccc(-n3cnc4cc(C(=O)OCc5cccnc5)ccc43)c2)C1` (stereo not drawn) [compound 4h, 5-(3-Picolyloxycarbonyl)-1-(3-(1-methylpiperidin-3-yl)phenyl)benzimidazole] it is 80 nM.

Tested on in another data set: not given
Experiment: not given
Details: not given
The compound `N#Cc1ccc2c(c1)ncn2-c1cccc(N2CCCCC2)c1` yielded a melting point of 106 to 108 °C.
`CN1CCN(c2cccc(-n3cnc4cc(C#N)ccc43)c2)CC1` came in with a melting point of 177 to 179 °C.
`CN1CCCC(c2cccc(-n3cnc4cc(C#N)ccc43)c2)C1.Cl` (stereo not drawn) registered a melting point of 158 to 160 °C.
The same measure, in the same setting: the figure for `ON=Cc1ccc2c(c1)ncn2-c1cccc(N2CCCCC2)c1` is 213 to 214 °C.
Turning to `ON=Cc1ccc2c(c1)ncn2-c1cccc(N2CCCC2)c1`, the melting point lay within 242 to 244 °C.
Consider `CN1CCN(c2cccc(-n3cnc4cc(C=NO)ccc43)c2)CC1`, for which the melting point lay in the range of 224 to 227 °C.
The same measure, in the same setting: the figure for `CC(C)ON=Cc1ccc2c(c1)ncn2-c1cccc(N2CCCCC2)c1` is 127 to 128 °C; for `CON=Cc1ccc2c(c1)ncn2-c1cccc(N2CCCCC2)c1` it is 107 to 108 °C; for `CC(=O)c1ccc2c(c1)ncn2-c1cccc(N2CCN(C(C)=NO)CC2)c1` it is 240 to 241 °C.
On to `CCON=C(C)c1ccc2c(c1)ncn2-c1cccc(N2CCN(C)CC2)c1.Cl`, for which the melting point is 62 to 63 °C.
On the same count and under the same terms, the result for `CCON=C(C)c1ccc2c(c1)ncn2-c1cccc(N2CCCC2)c1` reads 118 to 120 °C; that for `CCON=C(C)c1ccc2c(c1)ncn2-c1cccc(N2CCCCC2)c1`, 88 to 89 °C.
Turning to `CC(=NOC(C)C)c1ccc2c(c1)ncn2-c1cccc(C2CCCN(C)C2)c1.Cl` (stereo not drawn), the melting point is 48 to 55 °C.
`CC(=NOC(C)C)c1ccc2c(c1)ncn2-c1cccc(N2CCN(CCO)CC2)c1.Cl` displayed a melting point of 165 to 169 °C.
Same read-out and setting: the figure for `CC(=O)c1ccc2c(c1)ncn2-c1cccc(N2CCN(C(C)=NOC(C)C)CC2)c1.Cl` is 160 to 163 °C; for `CN1CCN(c2cccc(-n3cnc4cc(-c5ccoc5)ccc43)c2)CC1` it is 129 to 130 °C; for `CN1CCCC(c2cccc(-n3cnc4cc(-c5ccoc5)ccc43)c2)C1` (stereo not drawn) it is 96 to 97 °C.
Still for that read-out and setting: the result for `CN1CCN(c2cccc(-n3cnc4cc(-c5ccccc5)ccc43)c2)CC1` reads 131 to 132 °C.
Consider `CN1CCCC(c2cccc(-n3cnc4cc(-c5ccccc5)ccc43)c2)C1` (stereo not drawn), for which the melting point was in the range of 42 to 44 °C.
Still for that read-out and setting: the figure for `CN1CCCC(c2cccc(-n3cnc4cc(-c5nc(C6CC6)no5)ccc43)c2)C1.Cl` (stereo not drawn) is 184 to 190 °C; for `CN1CCCC(c2cccc(-n3cnc4cc(C(C)(C)C)ccc43)c2)C1.Cl` (stereo not drawn) it is 200 °C; for `CCOC(=O)c1ccc2c(c1)ncn2-c1cccc(N2CCN(C)CC2)c1` it is 86 to 87 °C.
In turn, `CCOC(=O)c1ccc2c(c1)ncn2-c1cccc(N2CCN(CCO)CC2)c1.Cl` displayed a melting point of 233 to 236 °C.
On the same count and under the same terms, the figure for `CCOC(=O)c1ccc2c(c1)ncn2-c1cccc(N2CCN(C(C)=O)CC2)c1` is 155 to 156 °C; for `CCOC(=O)CN1CCN(c2cccc(-n3cnc4cc(C(=O)OCC)ccc43)c2)CC1.Cl` it is 196 to 200 °C; for `CCOC(=O)C=Cc1ccc2c(c1)ncn2-c1cccc(N2CCCCC2)c1` it is 85 to 87 °C.
In the case of `CCOC(=O)C=Cc1ccc2c(c1)ncn2-c1cccc(N2CCN(C)CC2)c1`, the melting point was 133 to 134 °C.
Same read-out and setting: the figure for `COC(=O)C=Cc1ccc2c(c1)ncn2-c1cccc(N2CCN(C)CC2)c1` is 138 to 140 °C.
The same measure, in the same setting: the figure for `COC(=O)c1ccc2c(c1)ncn2-c1cccc(C2CN(C(C)=O)CCN2)c1` (stereo not drawn) is 189 to 191 °C.
In turn, `COC(=O)c1ccc2c(c1)ncn2-c1cccc(N2CCN(C)CC2)c1` yielded a melting point of 119 to 121 °C.
`CC(C)OC(=O)c1ccc2c(c1)ncn2-c1cccc(N2CCCCC2)c1`: the melting point lay within 160 to 161 °C.
On the same count and under the same terms, the result for `CCCOC(=O)c1ccc2c(c1)ncn2-c1cccc(N2CCCC2)c1` reads 170 to 172 °C; that for `CC(C)OC(=O)c1ccc2c(c1)ncn2-c1cccc(N2CCN(C)CC2)c1`, 110 to 111 °C.
For `CN1CCCC(c2cccc(-n3cnc4cc(C(=O)OCC5CC5)ccc43)c2)C1` (stereo not drawn), the melting point lay within 111 to 113 °C.
Compound `CCOC(=O)Cc1ccc2c(c1)ncn2-c1cccc(N2CCN(C)CC2)c1.Cl` came in with a melting point of 180 to 182 °C.
Still for that read-out and setting: the figure for `CC(=O)c1ccc2c(c1)ncn2-c1cccc(C(=NOC(C)C)OC2CCN(C)CC2)c1` is 106 to 107 °C.
As for `CC(=O)c1ccc2c(c1)ncn2-c1cccc(C(=NOC(C)C)OC2CCCN(C)C2)c1` (stereo not drawn), the melting point lay in the range of 83 to 84 °C.
In the case of `CCOC(=O)CON=C(C)c1ccc2c(c1)ncn2-c1cccc(C2CCCN(C)C2)c1.Cl` (stereo not drawn), the melting point was 73 to 75 °C.
In the case of `COC(=O)CON=C(C)c1ccc2c(c1)ncn2-c1cccc(C2CCCN(C)C2)c1` (stereo not drawn), the melting point lay in the range of 104 to 106 °C.
For `COC(=O)C(C)(C)ON=C(C)c1ccc2c(c1)ncn2-c1cccc(C2CCCN(C)C2)c1` (stereo not drawn), the melting point was 113 to 116 °C and 113 to 115 °C.
Still for that read-out and setting: the figure for `CCOC(CN1CCN(c2cccc(-n3cnc4cc(C(C)=O)ccc43)c2)CC1)=NO` is 154 to 156 °C.
In turn, `COC(=O)C(C)(C)ON=C(C)N1CCN(c2cccc(-n3cnc4cc(C(C)=O)ccc43)c2)CC1` showed a melting point of 119 to 120 °C.
Regarding `COC(=O)CON=C(C)N1CCN(c2cccc(-n3cnc4cc(C(C)=O)ccc43)c2)CC1`, the melting point fell in the range of 137 to 139 °C.
Same read-out and setting: the result for `CCCON=C(CN1CCN(c2cccc(-n3cnc4cc(C(C)=O)ccc43)c2)CC1)OC` reads 120 to 122 °C; that for `CCOC(=O)C(=CN1CCN(c2cccc(-n3cnc4cc(C(C)=O)ccc43)c2)CC1)C(=NOC(C)C)OCC`, 128 to 129 °C.
On the same count and under the same terms, the figure for `COC(=O)C(C)(C)ON=Cc1ccc2c(c1)ncn2-c1cccc(N2CCN(C)CC2)c1.Cl` is 199 to 201 °C; for `COC(=O)c1cccc(-n2cnc3cc(-c4ccno4)ccc32)c1` it is 190 to 191 °C; for `CCOC(=O)c1cccc(-n2cnc3cc(-c4ccccc4)ccc32)c1` it is 122 to 123 °C.
The same measure, in the same setting: the figure for `Cl.O=C(OCc1cccnc1)c1cccc(-n2cnc3cc(-c4ccccc4)ccc32)c1` is 195 to 197 °C; for `CN1CCCC(OC(=O)c2cccc(-n3cnc4cc(-c5ccccc5)ccc43)c2)C1.Cl` (stereo not drawn) it is 180 to 191 °C; for `CN1CCC(OC(=O)c2cccc(-n3cnc4cc(-c5ccccc5)ccc43)c2)CC1.Cl` it is 187 to 188 °C.
Turning to `CCOC(=O)c1cccc(-n2cnc3cc(-c4ccoc4)ccc32)c1`, the melting point was 87 to 89 °C.
Consider `CCOC(=O)c1cccc(-n2cnc3cc(C4CCOC4)ccc32)c1.Cl` (stereo not drawn), for which the melting point fell in the range of 168 to 171 °C.
`CCOC(=O)CN1CCN(c2cccc(-n3cnc4cc(-c5ccoc5)ccc43)c2)CC1` registered a melting point of 110 to 112 °C.
The same measure, in the same setting: the figure for `CC(C)(C)OC(=O)N1CCN(c2cccc(-n3cnc4cc(-c5ccoc5)ccc43)c2)CC1` is 162 to 164 °C.
Consider `COC(=O)CN1CCN(c2cccc(-n3cnc4cc(-c5ccoc5)ccc43)c2)CC1`, for which the melting point lay within 124 to 125 °C.
On the same count and under the same terms, the figure for `COC(=O)C=CN1CCN(c2cccc(-n3cnc4cc(-c5ccoc5)ccc43)c2)CC1` is 131 to 133 °C; for `N#Cc1ccc2c(c1)ncn2-c1cccc(N2CCCC2)c1` [compound 3a2, 5-Cyano-1-(3-(1-pyrrolidinyl)phenyl)benzimidazole] it is 171 to 172 °C; for `CN1CCCC(c2cccc(-n3cnc4cc(C=NO)ccc43)c2)C1` (stereo not drawn) [compound 3b4, 5-Formyl-1-(3-(1-methyl-3-piperidinyl)phenyl)benzimidazole oxime] it is 214 to 218 °C.
`CCON=C(C)c1ccc2c(c1)ncn2-c1cccc(C2CCCN(C)C2)c1.Cl` (stereo not drawn) [compound 3f7, 5-acetyl-1-(3-(1-methylpiperidin-3-yl)phenyl)benzimidazole O-ethyl oxime hydrochloride] returned a melting point of 112 to 114 °C.
Turning to `CC(=O)c1ccc2c(c1)ncn2-c1cccc(C(=NOC(C)C)OCc2ccccn2)c1` [compound 5a3, 5-Acetyl-1-(3-(2-picolyloxycarbonyl)phenyl)benzimidazole O-i-propyl oxime], the melting point lay in the range of 104 to 106 °C.
The same measure, in the same setting: the result for `CCON=C(CC1CCN(c2cccc(-n3cnc4cc(C(C)=O)ccc43)c2)CC1)OCC` [compound 5d2, 5-Acetyl-1-(3-(4-(ethoxycarbonylmethyl)piperidin-1-yl)phenyl)benzimidazole O-ethyl oxime] reads 119 to 120 °C.
